Source: paper PMC11002716 (ACS chemical biology, 2022)
Ends that are not written are not given here.

Legend:
[1] = biological target: fluorescein-labeled KB-752; assay: MST
[2] = system: Gs signaling (β2–adrenergic receptor, AC); assay: Cell-free ELISA-based cAMP assay on NG108–15 membrane preparations; assay type: biochemical
[3] = system: Gi signaling (δ–opioid receptor, AC); assay: as above; assay type: biochemical; details: Fsk+DADLE
[4] = system: HEK293 cells overexpressing the SNAP-β2 adrenergic receptor (Gs signaling pathway); assay: Whole-cell Iso-induced cAMP accumulation assay; assay type: cell-based
[5] = biological target: Gαi1·GDP (UniProt P63096 2-354); assay: MST
Sequence of Gαi1·GDP (UniProt P63096 2-354) (P63096 2-354): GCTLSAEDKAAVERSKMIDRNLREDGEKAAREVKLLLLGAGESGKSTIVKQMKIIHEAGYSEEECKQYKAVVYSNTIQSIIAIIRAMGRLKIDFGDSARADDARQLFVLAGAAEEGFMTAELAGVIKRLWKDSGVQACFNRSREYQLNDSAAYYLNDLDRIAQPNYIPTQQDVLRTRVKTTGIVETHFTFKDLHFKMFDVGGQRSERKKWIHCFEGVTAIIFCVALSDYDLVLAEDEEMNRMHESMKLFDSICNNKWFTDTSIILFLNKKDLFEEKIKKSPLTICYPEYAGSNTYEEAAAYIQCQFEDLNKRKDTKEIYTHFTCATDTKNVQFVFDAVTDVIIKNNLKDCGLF

Sequence of Gαi1·GDP (from UniProt P63096 2-354) (natural protein) (P63096 2-354): as above

Molecule: Gαi1·GDP (from UniProt P63096 2-354) (natural protein)
- Kd [1]: 0.345 µM

Molecule: SRVTWYDFLMEDTKSR-OH [KB–752]
- effect on Gs signaling / functional regulation of Gαs in cell-free ELISA [2]: inhibit Gs signaling
- effect on DADLE-mediated inhibition of the AC activity [3]: no effect
- effect on Gαs in the whole cell assay [4]: no effect

Molecule: {5(6)‑carboxyfluorescein}-RWLRALRYP [GPM-1 Y5A, fluorescein-labeled]
- Kd [5]: 0.285 ± 0.04 µM
